Test results published in patent publication US4740501A (priority 1985, dated 1988).

Tests used:
L-1210 leukemia cells = assay: Bioassay of tumorigenicity of in vitro treated tumor cells in syngeneic hosts; type: in vivo; conditions: BDf1 mice surviving 45 days
[1] = tested on: L1210/L-PAM leukemia cells; set-up: species or system BDF1 mice; conditions: mouse, in vivo
MMTV = assay: Extracellular MMTV protein by ELISA; type: cell-based, mouse; conditions: for ug MMTV protein/150 cm^2 culture: untreated 20.32
Protocol: Extracellular MMTV was quantitated using a modification of a direct Enzyme-Linked Immunosorbent Assay (ELISA) technique devised by Khan et al. (1982). Nunc immunoplates were sensitized with MMTV preparations disrupted in 2% NP-40 and serially diluted in 0.15M Na2 CO3 -0.035M NaHCO3 buffer, pH 8.6, by incubation in a moist chamber for 18 hours at 4° C. Wells were washed three times between all procedural steps with 0.01M phosphate-buffered-saline with 0.5% Tween 80, pH 7.4 (Pi/Na/Tween). Sensitized wells were then sequentially subjected to 1 hour incubations with (1) 0.5% bovine serum albumin in Pi/NaCl/Tween (4° C.), followed by either (2) preimmune rabbit sera or multivalent anti-MMTV antisera diluted 1:50 in Pi/NaCl/Tween at 37° C., and finally (3) a 1:1000 dilution of alkaline phosphatase-conjugated goat anti-rabbit IgG (Dynatech, Inc.) at 37° C. Reactions were terminated with 25 ul of 3N NaOH after incubation for 1 to 2 hours at 37° C. Intensity of the color reactions were determined at […] using a Dynatech ELISA plate reader. The detection limit of the assay was 3-5 ng MMTV protein per well.

AMML = assay: Survival of fresh human leukemic cells, continuous exposure; type: cell-based
P HR-1 B-lymphoma = assay: Tumor cell survival (trypan blue), continuous exposure; type: cell-based, Human
spontaneous leukemia = assay: Treatment of spontaneous leukemia in AKR mice; type: in vivo
Description: Leukemia in AKR mice, which is the result of the oncogenic activity of the endogenous Gross leukemia virus, has been effectively used as a model for human leukemias in the studies of tumor biology, chemotherapy, and chemoimmunotherapy. There is considerable evidence that leukemia in the AKR mice mimics human leukemias in many respects, and it is probable that AKR leukemia is analogous to human acute T-cell lymphocytic leukemia. Leukemic cells first appear in the thymus of mice at 6 to 12 months of age. Controlling this disease is formidable, since the cure or long range control of spontaneous leukemia in AKR mice require the therapeutic eradication of virtually all of the oncogenic cells. The time lapse between the first appearance of viable lymphoma cells in the thymus and the clinical diagnosis is about 30 days.
The effectiveness of the tripeptide compound in the treatment of spontaneous leukemia in AKR mice was tested. The clinical diagnosis of spontaneous leukemia in AKR mice was made with 95% accuracy by splenic and lymph node palpation, followed by leukocyte count. There is good evidence that at the time of clinical diagnosis there are 0.6-1.8×10^9 widely disseminated lymphoma cells in AKR mice. Without cytoreductive therapy, AKR mice die after diagnosis of spontaneous leukemia at the rate of 50% by 14 days, 90% by 33 days, and 96% by 56 days. […] Reduction of thymus and spleen weights to normal is indicative of eradication of the primary tumor. Leukemic AKR mice receiving either treatment sustained a mean survival time of 200% and 100%, respectively. It is also important and significant that the tripeptide compound treatment provides good sustainment since 30% of the treated animals in either group were alive after the onset on the therapy (FIG. 6).

[2] = tested on: L-1210 leukemia cell suspensions; assay: Tumor cell survival (trypan blue), continuous exposure; type: cell-based, Mouse; conditions: for Percent Tumor Cell Survival / % tumor cell survival: L-1210; for Percent Tumor Cell Survival: treated 24 hr

CCOC(=O)[C@H](CCSC)NC(=O)[C@H](Cc1cccc(N(CCCl)CCCl)c1)NC(=O)[C@@H](N)Cc1ccc(F)cc1.Cl [PTT.119, 3-(p-fluorophenyl)-L-alanyl-3-[m-bis(2-chloroethyl)aminophenyl]-L-alanyl-L-methionine ethyl ester hydrochloride]
protection of surviving hosts against second graft of 1000 untreated L-1210 cells (L-1210 leukemia cells): did not confer protection | cytotoxicity lower compared to untreated L1210 cells (L1210 leukemia cells): 20-30% | dose response curves of L1210, L1210-T1 and L1210-T2 (L1210 leukemia cells): no differences could be detected | viability in continuous treatment (L1210 leukemia cells): nonviable | viability of L1210-T1 in continuous treatment (L1210 leukemia cells): nonviable | tumorigenicity of L1210/L-PAM cells [1]: Complete abrogation | levels of extracellular MMTV compared to control cells (MMTV; 0.15, 1.5 and 7.5 uM, after 10 in vitro passages): less than 50% | ug MMTV protein/150 cm^2 culture (MMTV; continual 0.15 uM, passage 1): 17.4 µg | ug MMTV protein/150 cm^2 culture (MMTV; continual 0.15 uM, passage 5-6): 16.8 µg | ug MMTV protein/150 cm^2 culture (MMTV; continual 0.15 uM, passage 9-10): 9.52 µg | ug MMTV protein/150 cm^2 culture (MMTV; continual 1.5 uM, passage 5-6): 15.9 µg | ug MMTV protein/150 cm^2 culture (MMTV; continual 1.5 uM, passage 9-10): 7.5 µg | ug MMTV protein/150 cm^2 culture (MMTV; continual 7.5 uM, passage 5-6): 11.8 µg | ug MMTV protein/150 cm^2 culture (MMTV; continual 7.5 uM, passage 9-10): 8.3 µg | MMTV protein, % of control level (MMTV; day 1, 15 uM 2 hr pulse): 78% | ug MMTV protein/75 cm^2 flask (MMTV; day 1, 15 uM 2 hr pulse, control 20.6): 16.0 µg | MMTV protein, % of control level (MMTV; day 1, 15 uM 4 hr pulse): 81% | ug MMTV protein/75 cm^2 flask (MMTV; day 1, 15 uM 4 hr pulse, control 20.6): 16.7 µg | MMTV protein, % of control level (MMTV; day 1, 37.5 uM 0.5 hr pulse): 70% | ug MMTV protein/75 cm^2 flask (MMTV; day 1, 37.5 uM 0.5 hr pulse, control 20.6): 14.4 µg | MMTV protein, % of control level (MMTV; day 1, 37.5 uM 1.0 hr pulse): 53% | ug MMTV protein/75 cm^2 flask (MMTV; day 1, 37.5 uM 1.0 hr pulse, control 20.6): 11.0 µg | MMTV protein, % of control level (MMTV; day 2, 15 uM 2 hr pulse): 64% | ug MMTV protein/75 cm^2 flask (MMTV; day 2, 15 uM 2 hr pulse, control 19.3): 12.3 µg | MMTV protein, % of control level (MMTV; day 2, 15 uM 4 hr pulse): 62% | ug MMTV protein/75 cm^2 flask (MMTV; day 2, 15 uM 4 hr pulse, control 19.3): 11.9 µg | MMTV protein, % of control level (MMTV; day 2, 37.5 uM 0.5 hr pulse): 57% | ug MMTV protein/75 cm^2 flask (MMTV; day 2, 37.5 uM 0.5 hr pulse, control 19.3): 11.0 µg | MMTV protein, % of control level (MMTV; day 2, 37.5 uM 1.0 hr pulse): 58% | ug MMTV protein/75 cm^2 flask (MMTV; day 2, 37.5 uM 1.0 hr pulse, control 19.3): 11.2 µg | MMTV protein, % of control level (MMTV; day 7, 15 uM 2 hr pulse): 31% | ug MMTV protein/75 cm^2 flask (MMTV; day 7, 15 uM 2 hr pulse, control 35.2): 11.0 µg | MMTV protein, % of control level (MMTV; day 7, 15 uM 4 hr pulse): 22% | ug MMTV protein/75 cm^2 flask (MMTV; day 7, 15 uM 4 hr pulse, control 35.2): 7.6 µg | MMTV protein, % of control level (MMTV; day 7, 37.5 uM 0.5 hr pulse): 16% | ug MMTV protein/75 cm^2 flask (MMTV; day 7, 37.5 uM 0.5 hr pulse, control 35.2): 5.8 µg | MMTV protein, % of control level (MMTV; day 7, 37.5 uM 1.0 hr pulse): 3% | ug MMTV protein/75 cm^2 flask (MMTV; day 7, 37.5 uM 1.0 hr pulse, control 35.2): 0.9 µg | % tumor cell survival (AMML; 1 ug/ml, 1 hr): 95% | % tumor cell survival (AMML; 1 ug/ml, 4 hr): 85% | % tumor cell survival (AMML; 1 ug/ml, 24 hr): 66% | % tumor cell survival (AMML; 5 ug/ml, 1 hr): 50% | % tumor cell survival (AMML; 5 ug/ml, 4 hr): 52% | % tumor cell survival (AMML; 5 ug/ml, 24 hr): 6% | % tumor cell survival (AMML; 10 ug/ml, 1 hr): 60% | % tumor cell survival (AMML; 10 ug/ml, 4 hr): 41% | % tumor cell survival (AMML; 10 ug/ml, 24 hr): 21% | % tumor cell survival (AMML; 25 ug/ml, 1 hr): 20% | % tumor cell survival (AMML; 25 ug/ml, 4 hr): 15% | % tumor cell survival (AMML; 25 ug/ml, 24 hr): 14% | % tumor cell survival (AMML; 50 ug/ml, 1 hr): 4% | % tumor cell survival (AMML; 50 ug/ml, 4 hr): 3% | % tumor cell survival (AMML; 50 ug/ml, 24 hr): 4% | % tumor cell survival (P HR-1 B-lymphoma; 10 ug/ml, 1 hr): 96% | % tumor cell survival (P HR-1 B-lymphoma; 10 ug/ml, 4 hr): 91% | % tumor cell survival (P HR-1 B-lymphoma; 10 ug/ml, 24 hr): 75% | % tumor cell survival (P HR-1 B-lymphoma; 25 ug/ml, 1 hr): 92% | % tumor cell survival (P HR-1 B-lymphoma; 25 ug/ml, 4 hr): 86% | % tumor cell survival (P HR-1 B-lymphoma; 25 ug/ml, 24 hr): 69% | % tumor cell survival (P HR-1 B-lymphoma; 50 ug/ml, 1 hr): 93% | % tumor cell survival (P HR-1 B-lymphoma; 50 ug/ml, 4 hr): 75% | % tumor cell survival (P HR-1 B-lymphoma; 50 ug/ml, 24 hr): 60% | mean survival time (spontaneous leukemia; 5 mg per kg on days 1, 4, 7, 21, and 42): 100% | mean survival time (spontaneous leukemia; 10 mg per kg on days 1 and 14): 200% | leukemic thymus and spleen weights (spontaneous leukemia; after chemotherapy, either regimen): Significant reductions | treated animals alive after the onset of therapy (spontaneous leukemia; either treatment group): 30% | Percent Tumor Cell Survival ([2]; 0.1 ug/ml): 82% | % tumor cell survival ([2]; 1 ug/ml, 1 hr exposure): 95% | % tumor cell survival ([2]; 1 ug/ml, 8 hr): 100% | % tumor cell survival ([2]; 1 ug/ml, 24 hr): 65% | Percent Tumor Cell Survival ([2]; 1 ug/ml): 70% | % tumor cell survival ([2]; 5 ug/ml, 1 hr): 100% | % tumor cell survival ([2]; 5 ug/ml, 4 hr): 84% | % tumor cell survival ([2]; 5 ug/ml, 24 hr): 57% | Percent Tumor Cell Survival ([2]; 5 ug/ml): 62% | % tumor cell survival ([2]; 10 ug/ml, 1 hr): 92% | % tumor cell survival ([2]; 10 ug/ml, 4 hr): 75% | % tumor cell survival ([2]; 10 ug/ml, 24 hr): 12% | Percent Tumor Cell Survival ([2]; 10 ug/ml): 28% | % tumor cell survival ([2]; 25 ug/ml, 1 hr): 50% | % tumor cell survival ([2]; 25 ug/ml, 4 hr): 25% | % tumor cell survival ([2]; 25 ug/ml, 8 hr): 15% | % tumor cell survival ([2]; 25 ug/ml, 24 hr): 0% | Percent Tumor Cell Survival ([2]; 25 ug/ml): 6% | decrease in leukemia cell survival ([2]; continuous 24 hr exposure, all concentrations tested (0.1 to 50 ug/ml)): 18-94%
